Data published in patent US11091501B2, “Heterocyclic compounds as RSV inhibitors” (Enanta Pharmaceuticals, Inc., priority 2017, dated 2021).

Test system: Human RSV-A (“Long” strain)
Assay: RSV in vitro cytoprotection assay (CPE, ATPlite) in HEp-2 cells
Format: cell-based
Settings: human respiratory syncytial virus, 96 h; HEp-2 cells, 4-day incubation, ATPlite readout; read-out: Human RSV-A (“Long” strain) EC50
Source text: RSV is a single stranded negative sense RNA virus that causes respiratory tract infections which can be dangerous to infants, the elderly, and immunosuppressed individuals. Currently there is no vaccine, and therapeutic options are both costly and of limited effectiveness. These approved treatments are Ribavirin, and Palivizumab/Synagis (a monoclonal antibody). RSV has two genotypes, A and B, which differ primarily in the structure of the virus' surface “G” attachment protein. Our current primary screen focuses on RSV-A and uses an in vitro cytoprotection assay where compounds are added in 2-fold dilutions to cells which are then subjected to fully replicative viral particles. Cell viability is measured several days later along with separate measurements of compound cytotoxicity. This report focuses on the results of our most recent screening of compounds.
HEp-2 cells, (originally derived from tumors grown in irradiated-cortisonised weanling rats that had been injected with epidermoid carcinoma tissue from a person's larynx, but later found to be indistinguishable from HeLa cells by PCR DNA analysis), were used for the culturing of genotype A, “Long” strain RSV. Flasks were inoculated with RSV and viral stocks were collected once cytopathic effect (CPE) was greater than 90%. Viral stocks in 25% sucrose media were snap frozen using liquid nitrogen to increase viral stability. Viral stock titers were quantified by tissue culture infectious dose 50% (TCID50) using 8,000 cells per well and 3-fold viral dilutions across a 96-well plate, cultured for 4 days.
Following extensive parameter testing, the final assay is run as follows: HEp-2 cells are seeded into the inner 60 wells of a 96-well plate at 8,000 cells per well in a volume of 50 μL using Growth Media (DMEM without phenol red, 1% L-Glut, 1% Penn/Strep, 1% nonessential amino acids, 10% FBS). 2-Fold serial dilutions of control and test compounds are added to the wells in duplicate in a total volume of 25 μL. Viral stock is then added to the wells in a volume of […] the total volume of each well to 100 μL. Each 96-well plate has a control column of 6 wells with cells and virus but no compound (negative control, max CPE), a column with cells but no compound or virus (positive control, minimum CPE), and a column with no cells or virus or compound (background plate/reagent control). The control wells with cells but no virus are given an additional 25 uL of growth media containing an equal quantity of sucrose as those wells receiving the viral stock in order to keep consistent in media and volume conditions. The outer wells of the plate are filled with 125 μL of growth media to act as a thermal and evaporative moat around the test wells. Following a 4-day incubation period, the plates are read using ATPlite (50 uL added per well), which quantifies the amount of ATP (a measure of cell health) present in each well. Assay plates are read using the Envision luminometer. In parallel, cytotoxicity is examined on an additional 96-well plate treated in an identical manner, but substituting the 25 μL of viral stock for 25 μL of growth media. […] EC50 ranges are as follows: A<0.01 μM; B 0.01-0.05 μM; C>0.05 μM.

EC50 [nM]	Compound
< 10	Cc1cnc(N2CC3(CCOCC3)C2)c(C(=O)Nc2ccc(C(=O)N3CCc4cc(-c5nc6ccccc6[nH]5)sc4-c4ccc(F)cc43)cc2)c1 [Example 3]
< 10	Cc1cnc(N2CC3(CCOCC3)C2)c(C(=O)Nc2ccc(C(=O)N3CCc4cc(C(=O)Nc5c(C)cccc5F)sc4-c4ccc(F)cc43)cc2)c1 [Example 7]
< 10	Cc1cnc(N2CC3(CCOCC3)C2)c(C(=O)Nc2ccc(C(=O)N3CCc4cc(C(=O)Nc5ccccc5F)sc4-c4ccc(F)cc43)cc2)c1 [Example 8]
< 10	Cc1cnc(N2CC3(CCOCC3)C2)c(C(=O)Nc2ccc(C(=O)N3CCc4cc(C(=O)Nc5c(Cl)cccc5Cl)sc4-c4ccc(F)cc43)cc2)c1 [Example 9]
10 to 50	O=C(Nc1ccc(C(=O)N2CCc3cc(-c4nc5ccccc5[nH]4)sc3-c3ccc(F)cc32)cc1)c1cc2ccccc2nc1N1CC2(CCOCC2)C1 [Example 10]
< 10	Cc1cnc(N2CC3(CCOCC3)C2)c(C(=O)Nc2ccc(C(=O)N3CCc4cc(C(=O)Nc5c(F)cccc5F)sc4-c4ccc(F)cc43)cc2)c1 [Example 12]
< 10	Cc1cccc(F)c1NC(=O)c1cc2c(s1)-c1ccc(F)cc1N(C(=O)c1ccc(NC(=O)c3cc4ccccc4nc3N3CC4(CCOCC4)C3)cc1)CC2 [Example 14]
< 10	O=C(Nc1c(F)cc(F)cc1F)c1cc2c(s1)-c1ccc(F)cc1N(C(=O)c1ccc(NC(=O)c3cc4ccccc4nc3N3CC4(CCOCC4)C3)cc1)CC2 [Example 15]
< 10	O=C(Nc1c(F)cccc1F)c1cc2c(s1)-c1ccc(F)cc1N(C(=O)c1ccc(NC(=O)c3cc4ccccc4nc3N3CC4(CCOCC4)C3)cc1)CC2 [Example 16]
< 10	O=C(Nc1c(F)cccc1F)c1cc2c(s1)-c1ccc(F)cc1N(C(=O)c1ccc(NC(=O)c3cccnc3N3CC4(CCOCC4)C3)cc1)CC2 [Example 19]
< 10	O=C(Nc1c(F)cccc1Cl)c1cc2c(s1)-c1ccc(F)cc1N(C(=O)c1ccc(NC(=O)c3cccnc3N3CC4(CCOCC4)C3)cc1)CC2 [Example 20]
10 to 50	O=C(Nc1c(F)cc(F)cc1Cl)c1cc2c(s1)-c1ccc(F)cc1N(C(=O)c1ccc(NC(=O)c3cc4ccccc4nc3N3CC4(CCOCC4)C3)cc1)CC2 [Example 25]
10 to 50	O=C(Nc1c(F)cc(F)cc1Cl)c1cc2c(s1)-c1ccc(F)cc1N(C(=O)c1ccc(NC(=O)c3ccc(-c4cccs4)nc3N3CC4(CCOCC4)C3)cc1)CC2 [Example 27]
< 10	O=C(Nc1c(F)cccc1F)c1cc2c(s1)-c1ccc(F)cc1N(C(=O)c1ccc(NC(=O)c3cc(F)cnc3N3CC4(CCOCC4)C3)cc1)CC2 [Example 35]
< 10	Cc1cccc(F)c1NC(=O)c1cc2c(s1)-c1ccc(F)cc1N(C(=O)c1ccc(NC(=O)c3cc(F)cnc3N3CC4(CCOCC4)C3)cc1)CC2 [Example 36]
< 10	O=C(Nc1c(F)cccc1Cl)c1cc2c(s1)-c1ccc(F)cc1N(C(=O)c1ccc(NC(=O)c3cc(F)cnc3N3CC4(CCOCC4)C3)cc1)CC2 [Example 37]
10 to 50	O=C(Nc1ccc(C(=O)N2CCc3cc(-c4nc5ccccc5[nH]4)sc3-c3ccc(F)cc32)cc1)c1cccnc1N1CC2(CCOCC2)C1 [Example 38]
10 to 50	O=C(Nc1ccc(C(=O)N2CCc3cc(-c4nc5ccc(F)cc5[nH]4)sc3-c3ccc(F)cc32)cc1)c1cccnc1N1CC2(CCOCC2)C1 [Example 39]
10 to 50	O=C(Nc1ccc(C(=O)N2CCc3cc(-c4nc5cccc(F)c5[nH]4)sc3-c3ccc(F)cc32)cc1)c1cccnc1N1CC2(CCOCC2)C1 [Example 40]
> 50	O=C(Nc1ccc(C(=O)N2CCc3cc(-c4nc5cc(F)c(F)cc5[nH]4)sc3-c3ccc(F)cc32)cc1)c1cccnc1N1CC2(CCOCC2)C1 [Example 41]
10 to 50	O=C(Nc1ccc(C(=O)N2CCc3cc(-c4nc5ccc(F)cc5[nH]4)sc3-c3ccc(F)cc32)cc1)c1cc(F)cnc1N1CC2(CCOCC2)C1 [Example 42]
10 to 50	O=C(Nc1ccc(C(=O)N2CCc3cc(-c4nc5cccc(F)c5[nH]4)sc3-c3ccc(F)cc32)cc1)c1cc(F)cnc1N1CC2(CCOCC2)C1 [Example 43]
10 to 50	O=C(Nc1ccc(C(=O)N2CCc3cc(-c4nc5cccc(Cl)c5[nH]4)sc3-c3ccc(F)cc32)cc1)c1cc(F)cnc1N1CC2(CCOCC2)C1 [Example 44]
10 to 50	O=C(Nc1ccc(C(=O)N2CCc3cc(-c4ccn[nH]4)sc3-c3ccc(F)cc32)cc1)c1cc(F)cnc1N1CC2(CCOCC2)C1 [Example 45]
10 to 50	Cc1cnc(N2CC3(CCOCC3)C2)c(C(=O)Nc2ccc(C(=O)N3CCc4cc(-c5ccn[nH]5)sc4-c4ccc(F)cc43)cc2)c1 [Example 46]

Further lines, the molecule ahead of its results:

Compound	EC50 [nM]
O=C(Nc1c(F)cc(F)cc1F)c1cc2c(s1)-c1ccc(F)cc1N(C(=O)c1ccc(NC(=O)c3cc(F)cnc3N3CC4(CCOCC4)C3)cc1)CC2 [Example 4]	> 50
Cc1cnc(N2CC3(CCOCC3)C2)c(C(=O)Nc2ccc(C(=O)N3CCc4cc(C(=O)Nc5c(F)cccc5C(F)(F)F)sc4-c4ccc(F)cc43)cc2)c1 [Example 5]	< 10
Cc1cnc(N2CC3(CCOCC3)C2)c(C(=O)Nc2ccc(C(=O)N3CCc4cc(C(=O)Nc5c(C)cccc5C)sc4-c4ccc(F)cc43)cc2)c1 [Example 6]	< 10
Cc1cnc(N2CC3(CCOCC3)C2)c(C(=O)Nc2ccc(C(=O)N3CCc4cc(C(=O)Nc5c(C)cccc5C#N)sc4-c4ccc(F)cc43)cc2)c1 [Example 11]	< 10
Cc1cnc(N2CC3(CCOCC3)C2)c(C(=O)Nc2ccc(C(=O)N3CCc4cc(C(=O)Nc5c(F)cc(F)cc5F)sc4-c4ccc(F)cc43)cc2)c1 [Example 13]	< 10
N#Cc1cnc(N2CC3(CCOCC3)C2)c(C(=O)Nc2ccc(C(=O)N3CCc4cc(C(=O)Nc5c(F)cc(F)cc5Cl)sc4-c4ccc(F)cc43)cc2)c1 [Example 17]	10 to 50
N#Cc1cnc(N2CC3(CCOCC3)C2)c(C(=O)Nc2ccc(C(=O)N3CCc4cc(C(=O)Nc5c(Cl)cccc5Cl)sc4-c4ccc(F)cc43)cc2)c1 [Example 18]	10 to 50
O=C(Nc1c(F)cc(F)cc1F)c1cc2c(s1)-c1ccc(F)cc1N(C(=O)c1ccc(NC(=O)c3cccnc3N3CC4(CCOCC4)C3)cc1)CC2 [Example 22]	< 10
O=C(Nc1c(F)cc(F)cc1Cl)c1cc2c(s1)-c1ccc(F)cc1N(C(=O)c1ccc(NC(=O)c3ccc(C(F)(F)F)nc3N3CC4(CCOCC4)C3)cc1)CC2 [Example 23]	10 to 50
COc1ccc(C(=O)Nc2ccc(C(=O)N3CCc4cc(C(=O)Nc5c(F)cc(F)cc5Cl)sc4-c4ccc(F)cc43)cc2)c(N2CC3(CCOCC3)C2)n1 [Example 24]	10 to 50
O=C(Nc1c(F)cc(F)cc1Cl)c1cc2c(s1)-c1ccc(F)cc1N(C(=O)c1ccc(NC(=O)c3cc(F)cnc3N3CC4(CCOCC4)C3)cc1)CC2 [Example 26]	< 10
O=C(Nc1c(F)cc(F)cc1Cl)c1cc2c(s1)-c1ccc(F)cc1N(C(=O)c1ccc(NC(=O)c3cc(-c4cccs4)cnc3N3CC4(CCOCC4)C3)cc1)CC2 [Example 28]	10 to 50
O=C(Nc1c(F)cc(F)cc1Cl)c1cc2c(s1)-c1ccc(F)cc1N(C(=O)c1ccc(NC(=O)c3cc(C(F)(F)F)cnc3N3CC4(CCOCC4)C3)cc1)CC2 [Example 29]	10 to 50
O=C(Nc1c(F)cc(F)cc1Cl)c1cc2c(s1)-c1ccc(F)cc1N(C(=O)c1ccc(NC(=O)c3cc(C(F)(F)F)cnc3N3CCC4(CC3)COC4)cc1)CC2 [Example 30]	10 to 50
O=C(Nc1c(F)cc(F)cc1Cl)c1cc2c(s1)-c1ccc(F)cc1N(C(=O)c1ccc(NC(=O)c3cc4ccccc4nc3N3C4CCC3COC4)cc1)CC2 [Example 32]	> 50
O=C(Nc1c(F)cc(F)cc1Cl)c1cc2c(s1)-c1ccc(F)cc1N(C(=O)c1ccc(NC(=O)c3cc4ccccc4nc3N3CCS(=O)(=O)CC3)cc1)CC2 [Example 33]	> 50
O=C(Nc1c(F)cc(F)cc1Cl)c1cc2c(s1)-c1ccc(F)cc1N(C(=O)c1ccc(NC(=O)c3cc4ccccc4nc3N3CCCS(=O)(=O)CC3)cc1)CC2 [Example 34]	> 50
O=C(Nc1c(F)cccc1F)c1cc2c(s1)-c1ccc(F)cc1N(C(=O)c1ccc(NC(=O)c3cccnc3N3CC4CCCC4C3)cc1)CC2 (centres unmarked) [Example 47]	10 to 50
O=C(Nc1c(F)cccc1F)c1cc2c(s1)-c1ccc(F)cc1N(C(=O)c1ccc(NC(=O)c3cccnc3N3C[C@@H]4C[C@H]3CO4)cc1)CC2 [Example 48]	10 to 50
